Measured values taken from US5401762A, “Aminoalkyl-substituted thiazolin-2-ones, the preparation and use thereof” (BASF Aktiengesellschaft, priority 1991, dated 1995).
Counter-ions that a name gives are not always drawn.

biological target: T1, dopamine D2 receptor (Rattus norvegicus, UniProt P61169); assay: Receptor binding assay: affinity for the dopamine D2 receptor (3H-ADTN displacement, rat striatal membranes); parameters: species or system rat (Sprague Dawley); settings: not given
T1 construct: Striata from rats (Sprague Dawley, Charles River) were homogenized immediately after removal; from tissue; host or cells: rat striatum (Sprague Dawley, Charles River), membranes
Method: The effects of the novel compounds can be shown in the receptor binding assay as follows:
Striata from rats (Sprague Dawley, Charles River) were homogenized immediately after removal in 0.32M sucrose solution (0° C.). The homogenate was filtered through gauze, the filtrate was centrifuged at 1000 xg (5 min at 4° C.) and the resulting supernatant was centrifuged at 40000 xg (4° C., 10 min). The residue (membranes) was taken up in incubation buffer (50 mM tris-HCl, 1 mM MgCl2 and 0.1% ascorbic acid, pH 7.4) and incubated at 37° C. for 20 min. The residue was subsequently washed 2×with incubation buffer by resuspension and recentrifugation. The membranes were frozen in portions in liquid nitrogen.
The assay mixtures (1 ml) were composed of membranes (380 μg of protein), 1 nM ^3 H-ADTN (NEN, Dreieich Germany, specific radioactivity 1.4 TBq/mmol) and 0.1 μM SCH 23390 (total binding) or a) with the addition of 50 nM spiperone (non-specific binding) or b) with-test substance. The mixtures were prepared in triplicate.
After the incubation (40 min at 25° C.) the mixtures were filtered through glass fiber filters (Whatman GF/B) and briefly washed with ice-cold washing buffer (Tris-HCl pH 7.4). The radioactivity retained on the filters was determined by liquid scintillation counting. The non-specific binding comprised about 40-50% of the total binding.
The evaluation of the competition plots and the determination of the dissociation constant took place by iterative non-linear regression analysis based on the "ligand" program (Muson and Rodbard: Anal. Biochem. 107 (1980) 220).

T1 sequence (P61169 whole entry): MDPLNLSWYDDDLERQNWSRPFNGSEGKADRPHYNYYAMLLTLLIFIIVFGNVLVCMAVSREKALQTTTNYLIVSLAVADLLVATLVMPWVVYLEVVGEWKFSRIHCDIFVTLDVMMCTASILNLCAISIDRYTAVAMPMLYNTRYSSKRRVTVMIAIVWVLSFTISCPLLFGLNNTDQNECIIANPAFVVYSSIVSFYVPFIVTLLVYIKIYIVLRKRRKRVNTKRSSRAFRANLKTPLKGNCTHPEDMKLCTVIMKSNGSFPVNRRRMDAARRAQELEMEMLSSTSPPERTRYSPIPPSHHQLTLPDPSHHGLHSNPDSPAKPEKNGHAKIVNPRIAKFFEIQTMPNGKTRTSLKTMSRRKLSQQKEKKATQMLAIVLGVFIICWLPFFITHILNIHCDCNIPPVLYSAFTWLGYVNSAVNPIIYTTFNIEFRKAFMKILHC

Row | Compound | Ki [nM]
1 | Cc1[nH]c(=O)sc1CCCN1CC=C(c2ccccc2)CC1 [Example 1, 4-Methyl-5-[3-(1,2,3,6-tetrahydro-4-phenylpyridyl)propyl]-thiazolin-2-one hydrochloride] | 8

same assay, conditions: rat striatal membranes (380 μg protein), 1 nM 3H-ADTN, 0.1 μM SCH 23390, 40 min at 25° C., non-specific: 50 nM spiperone; read-out: Affinity of the test substances for the dopamine D2 receptor, Ki

Row | Ki [nM] | Compound
2 | 15 | Cc1[nH]c(=O)sc1CCCN1CCN(c2ccccn2)CC1 [Example 2, 4-Methyl-5-[3-(4-pyrid-2-ylpiperazinyl)propyl]thiazolin-2-one dihydrochloride]
3 | 12 | Cc1[nH]c(=O)sc1CCCN1CCN(c2ncccn2)CC1 [Example 7, 4-Methyl-5-[3-(4-pyrimidin-2-ylpiperazinyl)propyl]thiazolin-2-one dihydrochloride]
4 | 25 | CCc1ccccc1N1CCN(CCCc2sc(=O)[nH]c2C)CC1 [Example 10, 4-Methyl-5-[3-(4-(2-ethylphenyl)piperazinyl)propyl]thiazolin-2-one dihydrochloride]
5 | 6 | CSc1ccccc1N1CCN(CCCc2sc(=O)[nH]c2C)CC1 [Example 12, 4-Methyl-5-[3-(4-(2-methylthiophenyl)piperazinyl)propyl]thiazolin-2-onehydrochloride]
6 | 45 | Cc1[nH]c(=O)sc1CCCN1CCN(c2cccc(C(F)(F)F)c2)CC1 [Example 13, 4-Methyl-5-[3-(4-(3-trifluoromethylphenyl)piperazinyl)propyl]thiazolin-2-one hydrochloride]
7 | 6 | CCOc1ccccc1N1CCN(CCCc2sc(=O)[nH]c2C)CC1 [Example 14, 4-Methyl-5-[3-(4-(2-ethoxyphenyl)piperazinyl)propyl]thiazolin-2-one dihydrochloride]
8 | 40 | Cc1c(CCCN2CCN(c3ccccc3)CC2)sc(=O)n1C [Example 17, 3,4-Dimethyl-5-[3-(4-phenylpiperazinyl)propyl]thiazolin-2-one dihydrochloride]
